In patent publication US11512079B2, “Heterocycle substituted pyridine derivative antifungal agents” (Amplyx Pharmaceuticals, Inc., priority 2017, dated 2022):
Values after ≈ are worked out from the molar mass of the structure shown.

Columns and labels:
Type in all cases: cell-based
Cryptococcus gattii = test: In vitro antifungal assay (Example IX), microdilution broth, MIC; details: minimum inhibitory concentration (≥50% inhibition), 35° C., 72 h (Cryptococcus), RPMI1640
Method in brief: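 Broth microdilution in RPMI1640 with 2.5×10^3 cells/mL inoculum; final compound concentrations were 2–0.0019 μg/mL, with 1% DMSO. Cryptococcus plates were incubated at 35 °C for 72 h, and growth was read at 600 nm to give the MIC.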

[1] = tested on: Cryptococcus neoformans H99; test: as above; details: minimum inhibitory concentration (≥50% inhibition), 35° C., 72 h, RPMI1640
Method in brief: (§1)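 CLSI broth microdilution in RPMI1640 with 2.5×10^3 cells/mL and final compound concentrations of 2-0.0019 μg/mL (1% DMSO). C. albicans 90028 plates were incubated at 35° C. for 40-48 h and C. neoformans H99 for 72 h. MIC was read as minimum inhibitory concentration, verified at 600 nm.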

Candida albicans 90028 = test: as above; details: minimum inhibitory concentration (≥50% inhibition), 35° C., 40-48 h, RPMI1640
Method in brief: as §1

[2] = tested on: Aspergillus fumigatus MYA3626; test: In vitro antifungal assay (Example IX), microdilution broth, MEC; details: minimum effective concentration (shortening of hyphae), 35° C., 40-48 h, RPMI1640
Method in brief: (§2)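 Spore suspensions of A. fumigatus and R. pusillus adjusted to 1-2×10^4 spores/mL in RPMI1640 and exposed to compound dilutions prepared in DMSO, by broth microdilution. MEC taken as the lowest concentration shortening hyphae versus DMSO control wells, read as for echinocandins.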

[3] = tested on: Rhizomucor pusillus 46342; test: as above; details: minimum effective concentration (shortening of hyphae), 35° C., 40-48 h, RPMI1640
Method in brief: as §2

Structure (SMILES) | MIC (Cryptococcus gattii) [µg/mL] | MIC [1] [µg/mL] | MIC (Candida albicans 90028) [µg/mL] | minimal effective concentration [2] [µg/mL] | minimal effective concentration [3] [µg/mL]
Nc1ncccc1-c1cc(Cc2ccc(COc3cccc(F)n3)cc2)no1 [compound 137, 3-(3-(4-(((6-fluoropyridin-2-yl)oxy)methyl)benzyl)isoxazol-5-yl)pyridin-2-amine] | 0.01 to 0.1 (≈ 0.0266 to 0.266 µM) | 0.1 to 1 (≈ 0.266 to 2.66 µM) | 0.01 to 0.1 (≈ 0.0266 to 0.266 µM) | 0.01 to 0.1 | > 1
Nc1ncccc1-c1cc(Cc2ccc(Sc3ccccc3)nc2)no1 [compound 186, 3-(3-((6-(phenylthio)pyridin-3-yl)methyl)isoxazol-5-yl)pyridin-2-amine] | 0.01 to 0.1 (≈ 0.0277 to 0.277 µM) | 0.1 to 1 (≈ 0.277 to 2.77 µM) | 0.01 to 0.1 (≈ 0.0277 to 0.277 µM) | 0.01 to 0.1 | > 1
Nc1ncccc1-c1cc(Cc2ccc(OCc3ccc(F)cc3)nc2)no1 [compound 187, 3-(3-((6-((4-fluorobenzyl)oxy)pyridin-3-yl)methyl)isoxazol-5-yl)pyridin-2-amine] | 0.01 to 0.1 (≈ 0.0266 to 0.266 µM) | 0.1 to 1 (≈ 0.266 to 2.66 µM) | 0.1 to 1 (≈ 0.266 to 2.66 µM) | 0.1 to 1 | 0.1 to 1
Nc1ncccc1-c1cc(Cc2ccc(N3CCC3c3ccccc3)nc2)no1 (stereo not shown) [compound 188, 3-(3-((6-(2-phenylazetidin-1-yl)pyridin-3-yl)methyl)isoxazol-5-yl)pyridin-2-amine] | > 1 | > 1 | > 1 | > 1 | 0.1 to 1
Nc1ncccc1-c1cc(Cc2ccc(COc3cc(F)ccc3F)cc2)no1 [compound 189, 3-(3-(4-((2,5-difluorophenoxy)methyl)benzyl)isoxazol-5-yl)pyridin-2-amine] | 0.1 to 1 (≈ 0.254 to 2.54 µM) | 0.01 to 0.1 (≈ 0.0254 to 0.254 µM) | 0.01 to 0.1 (≈ 0.0254 to 0.254 µM) | 0.01 to 0.1 | > 1
Nc1ncccc1-c1cc(Cc2ccc(COc3cc(F)cc(F)c3F)cc2)no1 [compound 190, 3-(3-(4-((2,3,5-trifluorophenoxy)methyl)benzyl)isoxazol-5-yl)pyridin-2-amine] | 0.1 to 1 (≈ 0.243 to 2.43 µM) | 0.1 to 1 (≈ 0.243 to 2.43 µM) | 0.1 to 1 (≈ 0.243 to 2.43 µM) | 0.1 to 1 | > 1
Nc1ncccc1-c1cc(Cc2ccc(C(=O)c3ccccc3)cc2)no1 [compound 191, (4-((5-(2-aminopyridin-3-yl)isoxazol-3-yl)methyl)phenyl)(phenyl)methanone] | 0.1 to 1 (≈ 0.281 to 2.81 µM) | 0.1 to 1 (≈ 0.281 to 2.81 µM) | 0.1 to 1 (≈ 0.281 to 2.81 µM) | 0.01 to 0.1 | 0.1 to 1
Nc1ncccc1-c1cc(Cc2ccc(CNc3ccc(F)c(F)c3F)cc2)no1 [compound 193, 3-(3-(4-(((2,3,4-trifluorophenyl)amino)methyl)benzyl)isoxazol-5-yl)pyridin-2-amine] | 0.1 to 1 (≈ 0.244 to 2.44 µM) | 0.1 to 1 (≈ 0.244 to 2.44 µM) | 0.1 to 1 (≈ 0.244 to 2.44 µM) | 0.01 to 0.1 | 0.1 to 1
Nc1ncccc1-c1cc(Cc2ccc(OCc3ccnc(Br)c3)nc2)no1 [compound 195, 3-(3-((6-((2-bromopyridin-4-yl)methoxy)pyridin-3-yl)methyl)isoxazol-5-yl)pyridin-2-amine] | 0.01 to 0.1 (≈ 0.0228 to 0.228 µM) | 0.01 to 0.1 (≈ 0.0228 to 0.228 µM) | 0.1 to 1 (≈ 0.228 to 2.28 µM) | 0.1 to 1 | > 1
Nc1ncccc1-c1cc(Cc2ccc(CNc3cc(F)ccc3F)cc2)no1 [compound 196, 3-(3-(4-(((2,5-difluorophenyl)amino)methyl)benzyl)isoxazol-5-yl)pyridin-2-amine] | 0.1 to 1 (≈ 0.255 to 2.55 µM) | 0.01 to 0.1 (≈ 0.0255 to 0.255 µM) | 0.01 to 0.1 (≈ 0.0255 to 0.255 µM) | 0.1 to 1 | 0.1 to 1
COc1c(F)cc(F)cc1NCc1ccc(Cc2cc(-c3cccnc3N)on2)cc1 [compound 198, 3-(3-(4-(((3,5-difluoro-2-methoxyphenyl)amino)methyl)benzyl)isoxazol-5-yl)pyridin-2-amine] | > 1 | 0.1 to 1 (≈ 0.237 to 2.37 µM) | 0.1 to 1 (≈ 0.237 to 2.37 µM) | > 1 | 0.1 to 1
Nc1ncccc1-c1cc(Cc2ccc(Cn3cncn3)cc2)no1 [compound 199, 3-(3-(4-((1H-1,2,4-triazol-1-yl)methyl)benzyl)isoxazol-5-yl)pyridin-2-amine] | > 1 | > 1 | > 1 | > 1 | > 1
Nc1ncccc1-c1cc(Cc2ccc(Cn3cnnc3)cc2)no1 [compound 200, 3-(3-(4-((4H-1,2,4-triazol-4-yl)methyl)benzyl)isoxazol-5-yl)pyridin-2-amine] | > 1 | > 1 | > 1 | > 1 | > 1
COc1cc(F)cc(NCc2ccc(Cc3cc(-c4cccnc4N)on3)cc2)c1 [compound 201, 3-(3-(4-(((3-fluoro-5-methoxyphenyl)amino)methyl)benzyl)isoxazol-5-yl)pyridin-2-amine] | > 1 | 0.1 to 1 (≈ 0.247 to 2.47 µM) | 0.1 to 1 (≈ 0.247 to 2.47 µM) | 0.1 to 1 | > 1
Nc1ncccc1-c1cc(Cc2ccc(OCCn3cncn3)nc2)no1 [compound 202, 3-(3-((6-(2-(1H-1,2,4-triazol-1-yl)ethoxy)pyridin-3-yl)methyl)isoxazol-5-yl)pyridin-2-amine] | > 1 | > 1 | > 1 | > 1 | > 1
Nc1ncccc1-c1cc(Cc2ccc(-c3ccccn3)cc2)no1 [compound 203, 3-(3-(4-(pyridin-2-yl)benzyl)isoxazol-5-yl)pyridin-2-amine] | 0.1 to 1 (≈ 0.305 to 3.05 µM) | 0.1 to 1 (≈ 0.305 to 3.05 µM) | > 1 | > 1 | > 1
Nc1ncccc1-c1cc(Cc2ccc(-c3ccncc3)cc2)no1 [compound 204, 3-(3-(4-(pyridin-4-yl)benzyl)isoxazol-5-yl)pyridin-2-amine] | > 1 | > 1 | > 1 | > 1 | > 1
Nc1ncccc1-c1cc(Cc2ccc(-c3ccc(F)cc3)nc2)no1 [compound 205, 3-(3-((6-(4-fluorophenyl)pyridin-3-yl)methyl)isoxazol-5-yl)pyridin-2-amine] | > 1 | 0.1 to 1 (≈ 0.289 to 2.89 µM) | 0.1 to 1 (≈ 0.289 to 2.89 µM) | > 1 | 0.1 to 1
Nc1ncccc1-c1cc(Cc2ccc(OCc3ccn4ccnc4c3)nc2)no1 [compound 206, 3-(3-((6-(imidazo[1,2-a]pyridine-7-ylmethoxy)pyridin-3-yl)methyl)isoxazol-5-yl)pyridin-2-amine] | > 1 | > 1 | > 1 | > 1 | > 1
COc1cc(COc2ccc(Cc3cc(-c4cccnc4N)on3)cn2)c(F)cn1 [compound 207, 3-(3-((6-((5-fluoro-2-methoxypyridin-4-yl)methoxy)pyridin-3-yl)methyl)isoxazol-5-yl)pyridin-2-amine] | 0.1 to 1 (≈ 0.245 to 2.45 µM) | 0.01 to 0.1 (≈ 0.0245 to 0.245 µM) | 0.1 to 1 (≈ 0.245 to 2.45 µM) | 0.01 to 0.1 | > 1
Nc1ncccc1-c1cc(Cc2ccc(Cc3cccc(F)c3)cc2)no1 [compound 208, 3-(3-(4-(3-fluorobenzyl)benzyl)isoxazol-5-yl)pyridin-2-amine] | 0.01 to 0.1 (≈ 0.0278 to 0.278 µM) | 0.01 to 0.1 (≈ 0.0278 to 0.278 µM) | 0.01 to 0.1 (≈ 0.0278 to 0.278 µM) | 0.01 to 0.1 | 0.1 to 1
CC(C)(O)c1cccc(Cc2ccc(Cc3cc(-c4cccnc4N)on3)cc2)c1 [compound 209, 2-(3-(4-((5-(2-aminopyridin-3-yl)isoxazol-3-yl)methyl)benzyl)phenyl)propan-2-ol] | > 1 | > 1 | > 1 | > 1 | > 1
Nc1ncccc1-c1cc(Cc2ccc(Cc3cc(F)cc(F)c3)cc2)no1 [compound 212, 3-(3-(4-(3,5-difluorobenzyl)benzyl)isoxazol-5-yl)pyridin-2-amine] | 0.01 to 0.1 (≈ 0.0265 to 0.265 µM) | 0.01 to 0.1 (≈ 0.0265 to 0.265 µM) | 0.1 to 1 (≈ 0.265 to 2.65 µM) | 0.1 to 1 | 0.1 to 1
Nc1ncccc1-c1cc(Cc2ccc(OCCCc3ccccc3)nc2)no1 [compound 213, 3-(3-((6-(3-phenylpropoxy)pyridin-3-yl)methyl)isoxazol-5-yl)pyridin-2-amine] | 0.1 to 1 (≈ 0.259 to 2.59 µM) | 0.1 to 1 (≈ 0.259 to 2.59 µM) | 0.1 to 1 (≈ 0.259 to 2.59 µM) | 0.1 to 1 | > 1
COc1cc(F)cc(Cc2ccc(Cc3cc(-c4cccnc4N)on3)cc2)c1 [compound 216, 3-(3-(4-(3-fluoro-5-methoxybenzyl)benzyl)isoxazol-5-yl)pyridin-2-amine] | 0.1 to 1 (≈ 0.257 to 2.57 µM) | 0.1 to 1 (≈ 0.257 to 2.57 µM) | 0.1 to 1 (≈ 0.257 to 2.57 µM) | 0.1 to 1 | > 1
Nc1ncccc1-c1cc(Cc2ccc(OCc3ccncc3Cl)nc2)no1 [compound 218, 3-(3-((6-((3-chloropyridin-4-yl)methoxy)pyridin-3-yl)methyl)isoxazol-5-yl)pyridin-2-amine] | > 1 | > 1 | 0.1 to 1 (≈ 0.254 to 2.54 µM) | 0.1 to 1 | > 1
